Article PMC3391261, “Characteristic Features of Kynurenine Aminotransferase Allosterically Regulated by (Alpha)-Ketoglutarate in Cooperation with Kynurenine” (PLoS ONE, 2012)
Like-named read-outs stand apart in the source and are kept apart here.

Tests used:
[1] = target: T1, PhKAT (Pyrococcus horikoshii, UniProt O57946); assay: Spectrophotometric titration of PhKAT with PLP (absorbance change at 360 nm, 2-site binding model with hill slopes); design: species or system Pyrococcus horikoshii OT3; details: 25°C
Protocol: PhKAT was added to a 20 µM (final concentration) PLP solution in a final volume of 500 µL of 50 mM HEPES–NaOH buffer (pH 7.5) containing 100 mM NaCl. Titration of PhKAT with PLP was monitored by absorption spectroscopy. Aliquots of PLP (1, 2, 4, 8, 16, 32, and 64 µM) were added to the cuvette containing PhKAT at 25°C. Spectra were recorded after the addition of PLP, and the PLP-binding constant (K d) was calculated from the difference in absorbance at 360 nm, and the PLP-binding curve for PhKAT was obtained by the 2-site binding model with variable slopes using prism5.

[2] = target: T1, PhKAT; assay: Isothermal titration calorimetry for cofactor and substrate binding; design: species or system Pyrococcus horikoshii OT3; details: PLP binding to PhKAT; judged from shape of binding curve
Source text: To avoid air bubbles, we degassed solutions under vacuum before use. […] Power peaks were integrated, and the resultant reaction […] were plotted against the molar cofactor and/or substrate/protein ratios and fitted using the “sequential binding sites” model according to the manufacturer's instructions with origin version 5.0 (MicroCal Software), thus yielding the dissociation constant K d.

[3] = target: T1, PhKAT; assay: KAT transaminase kinetics, KYNA production from KYN monitored at 332 nm; details: 100 µM KYN; keto acid as amino acceptor
Protocol: KYNA production was monitored spectrophotometrically using a U-2810 UV–Vis spectrophotometer (Hitachi).
The transaminase abilities of KAT were assayed by measuring the rate of the KYNA production. […] KYNA production was monitored by the increase in A332 at 25°C. The quantities of KYNA were determined spectroscopically with an extinction coefficient of 9.8 mM^−1⋅cm^−1 at 332 nm.

[4] = substrate: CCC(=O)C(=O)O; assay: purified protein, by the assay type; details: other: 100 µM KYN; keto acid as amino acceptor; pH 7.5; 25.0 °C
Protocol: (§1) PLP-dependent KAT activity was assayed in 500 µL of 50 mM HEPES–NaOH buffer (pH 7.5) containing 100 mM NaCl, 10 µM PhKAT, 15 µM PLP, 20 µM KYN, and 64 µM 2OG. Assays were performed at room temperature (25°C), and the reaction was initiated by the addition of 2OG. KYNA production was monitored spectrophotometrically using a U-2810 UV–Vis spectrophotometer (Hitachi).
(§2) The transaminase abilities of KAT were assayed by measuring the rate of the KYNA production. In a total volume of 500 µL, the reaction mixture contained 10 µM PhKAT (dimer: 5 µM); 12 µM PLP; 0.08, 0.1, 0.4, 0.8, 1, 1.2, 2, 4, 6, 8, 12, 16, 20 and 24 µM 2OG; 0.02, 0.08, 0.1, 0.4, 0.8, 1, 1.2, 2, 4, 6, 8, 12, 16, 20 and 24 µM OXA; 50, or 100 µM KYN; 50 mM HEPES–NaOH buffer (pH 7.5); 100 mM NaCl; 0.4, 0.8, 1, 4, 8, 12 and 16 µM α-KMB, and/or 0.4, 0.8, 1, 4, 8, 12, 16 and 20 µM α-KBA. KYNA production was monitored by the increase in A332 at 25°C. The quantities of KYNA were determined spectroscopically with an extinction coefficient of 9.8 mM^−1⋅cm^−1 at 332 nm.

[5] = substrate: CSCCC(=O)C(=O)O; assay: purified protein, by the assay type; details: other: 100 µM KYN; keto acid as amino acceptor; pH 7.5; 25.0 °C
Protocol: as §1, §2

[6] = target: the molecule itself; assay: crystal structure; co-crystals of PhKAT with PLP (1:1), PLP and 2OG (1:1:1 or 1:1:2), sitting-drop vapor diffusion at 4°C; space group C2, two chains in the asymmetric unit

`Cc1ncc(COP(=O)(O)O)c(C=O)c1O` [PLP, Pyridoxal phosphate] gave a Kd ([1]; 10 µM PhKAT, pH 7.5, read-out: Kd1 (dissociation constant for PLP, first binding site)) of 25.5 µM, a Kd ([1]; 10 µM PhKAT, pH 7.5, read-out: Kd2 (dissociation constant for PLP, second binding site)) of 1.77 µM and a Kd ([1]; 20 µM PhKAT, pH 7.5, read-out: Kd1 (dissociation constant for PLP, first binding site)) of 9.65 µM. For the same molecule, the Kd ([1]; 20 µM PhKAT, pH 7.5, read-out: Kd2 (dissociation constant for PLP, second binding site)) was 1.92 µM and the “dissociation constant (apparent) of second binding site in PhKAT” value [2] was “approximately femtomole order”.

In the case of `CCC(=O)C(=O)O` [α-KBA, 2-ketobutyric acid], the “H-value (allosteric sigmoidal model)” value [3] is reported as 1.79.

`CSCCC(=O)C(=O)O` [α-KMB, α-keto-γ-(methylthio) butyric acid] was tested, and the “H-value (allosteric sigmoidal model)” value [3] was 3.57.

B1: PhKAT (Pyrococcus horikoshii OT3) (protein)
chain: MHEDVQLNIYVHSQEGIGMEENIKSMLGDVERFFSKKALEMRASEVRELLKLVETSDIISLAGGLPNPKTFPKEIIRDILVEIMEKYADKALQYGTTKGFTPLRETLMKWLGKRYGISQDNDIMITSGSQQALDLIGRVFLNPGDIVVVEAPTYLAALQAFNFYEPQYIQIPLDDEGMKVEILEEKLKELKSQGKKVKVVYTVPTFQNPAGVTMNEDRRKYLLELASEYDFIVVEDDPYGELRYSGNPEKKIKALDNEGRVIYLGTFSKILAPGFRIGWMVGDPGIIRKMEIAKQSTDLCTNVFGQVVAWRYVDGGYLEKHIPEIRKFYKPRRDAMLEALEEFMPEGVKWTKPEGGMFIWVTLPDGIDSKKMLERAIKKGVAYVPGEAFYAHRDVKNTMRLNFTYVDEDKIMEGIKRLAETIKEELKA
B1 was tested, and the Km [4] was 1.73 µM and the Km [5] was 2.41 µM.

B2: Kynurenine aminotransferase from Pyrococcus horikoshii OT3 (enzyme, UniProt O57946 1-428, looked up)
chain: B1 chain
modifications: PLP in a Schiff-base link with Lys269
notes: Kynurenine aminotransferase (PhKAT) of Pyrococcus horikoshii OT3, 428 residues; residues 25-428 seen in the crystal structures, residues 1-24 and the N-terminal His-tag disordered; also called PhKAT; KAT; source: E. coli BL21-CodonPlus (DE3), pET28a-PhKAT, purified (His TALON cartridge); not shown: His6, N-terminal, kept
With B2 the “stoichiometry N” value [6] was 2.
